The results in this text go back to article PMC9409145, “(-)-Epicatechin Is a Biased Ligand of Apelin Receptor” (International Journal of Molecular Sciences, 2022).

The target of assay [1] is T1, apelin receptor (APLNR; APJ), PathHunter eXpress (Homo sapiens, UniProt P35414).
T1 construct: full-length receptor with C-terminal ProLink (beta-galactosidase fragment) tag, stably expressed in CHO-K1 with enzyme-acceptor-tagged beta-arrestin-2
T1 sequence (P35414 1-380): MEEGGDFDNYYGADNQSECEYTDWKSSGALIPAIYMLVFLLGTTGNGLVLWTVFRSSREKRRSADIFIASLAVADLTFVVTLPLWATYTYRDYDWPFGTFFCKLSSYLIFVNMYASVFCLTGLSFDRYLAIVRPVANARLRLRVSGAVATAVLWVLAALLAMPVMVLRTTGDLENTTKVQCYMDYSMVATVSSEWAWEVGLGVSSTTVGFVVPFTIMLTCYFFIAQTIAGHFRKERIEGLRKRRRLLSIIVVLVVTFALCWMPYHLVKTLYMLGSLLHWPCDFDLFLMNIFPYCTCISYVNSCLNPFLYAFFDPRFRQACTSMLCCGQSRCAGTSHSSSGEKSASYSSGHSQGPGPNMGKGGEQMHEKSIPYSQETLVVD
The assay is described as follows: beta-arrestin-2 recruitment, enzyme complementation chemiluminescence, specific binding with Hill slope fit. Conditions: agonist; apparent constant from functional response, not a radioligand; 1 h incubation; CHO-K1 cells; read-out: Kd. The format is cell-based. The source says:
beta-arrestin-2 recruitment, enzyme complementation chemiluminescence, specific binding with Hill slope fit on apelin receptor (APLNR; APJ), PathHunter eXpress

The target in assay [2] is T2, apelin receptor (mouse skeletal muscle) (Mus musculus, UniProt Q9WV08).
T2 construct: gene Aplnr
T2 sequence (Q9WV08 1-377): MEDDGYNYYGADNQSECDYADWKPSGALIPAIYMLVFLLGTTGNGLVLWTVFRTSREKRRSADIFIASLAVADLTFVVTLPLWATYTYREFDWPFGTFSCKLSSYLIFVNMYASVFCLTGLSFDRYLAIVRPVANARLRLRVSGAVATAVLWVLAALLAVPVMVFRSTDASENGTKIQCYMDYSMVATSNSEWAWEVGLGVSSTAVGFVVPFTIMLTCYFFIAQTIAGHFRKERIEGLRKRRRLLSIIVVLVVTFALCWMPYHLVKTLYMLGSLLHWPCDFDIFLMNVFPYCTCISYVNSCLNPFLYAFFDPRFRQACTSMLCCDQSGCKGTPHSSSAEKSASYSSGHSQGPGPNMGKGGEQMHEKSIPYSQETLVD
The assay is described as follows: affinity chromatography on immobilised epicatechin, MS identification. The format is binding. Conditions: muscle homogenate, 4 °C overnight, PBS pH 7.4; acid elution (MES pH 4.5); immobilised ligand.

Assay [3] has as its target T1, apelin receptor (APLNR; APJ), PathHunter eXpress. The assay is described as follows: beta-arrestin-2 recruitment, enzyme complementation chemiluminescence. It counts as cell-based. The conditions noted are these: antagonist; cells pre-incubated with ML221, then EC as agonist.

As for `Oc1cc(O)c2c(c1)O[C@H](c1ccc(O)c(O)c1)[C@H](O)C2` [EC, (-)-epicatechin], the EC50 in assay [1] came to 1.76 pM. The “affinity chromatography on immobilised epicatechin, MS identification” value in assay [2] was “Five proteins were identified as receptors: apelin receptor”. As for `O=C(Oc1coc(CSc2ncccn2)cc1=O)c1ccc([N+](=O)[O-])cc1` [ML221, 5-[(4-Nitrobenzoyl)oxy]-2-[(2-pyrimidinylthio)methyl]-4H-pyran-4-one], the “beta-arrestin-2 recruitment, enzyme complementation chemiluminescence” value in assay [3] was “the interaction of the antagonist with the receptor and the blockage of the effect of EC”.
